Test results: DBAASP

Tests used:
Assay in all cases: ≥ marks a high value that may be exact or a test limit, other limits are often not marked, values filed in µg/mL are converted to µM
[1] = test system: Acinetobacter baumannii Q12-0809
[2] = test system: Acinetobacter baumannii Q13-0717
[3] = test system: Campylobacter jejuni NCTC 11351
[4] = test system: Campylobacter jejuni
[5] = test system: Enterococcus faecalis JH-2-2
[6] = test system: Escherichia coli K-12
[7] = test system: Escherichia coli
[8] = test system: Klebsiella pneumoniae ATCC 700603
[9] = test system: Klebsiella pneumoniae NCTC 13442
[10] = test system: Klebsiella pneumoniae Q14-0095
[11] = test system: Klebsiella pneumoniae Q14-0285
[12] = test system: Listeria monocytogenes NCTC 11994
[13] = test system: Pseudomonas aeruginosa ATCC 27853
[14] = test system: Pseudomonas aeruginosa PAO1
[15] = test system: Pseudomonas aeruginosa Q12-0535
[16] = test system: Pseudomonas aeruginosa Q14-0208
[17] = test system: Pseudomonas aeruginosa Q14-0890
[18] = test system: Salmonella typhimurium SL1344
[19] = test system: Staphylococcus aureus ATCC 29213
[20] = test system: Staphylococcus aureus MRSA-15
[21] = test system: Staphylococcus aureus NCTC 12493
[22] = test system: Staphylococcus aureus Q14-0320
[23] = test system: Staphylococcus aureus Q14-0325
[24] = test system: Staphylococcus aureus RN4220
[25] = test system: Escherichia coli ATCC 25922
[26] = test system: Escherichia coli CCARM 1229
[27] = test system: Escherichia coli CCARM 1238
[28] = test system: Listeria monocytogenes KCTC 3710
[29] = test system: Pseudomonas aeruginosa 3592
[30] = test system: Pseudomonas aeruginosa 5018
[31] = test system: Salmonella typhimurium CCARM 8009
[32] = test system: Salmonella typhimurium CCARM 8013
[33] = test system: Salmonella typhimurium KCTC 1926
[34] = test system: Staphylococcus aureus ATCC 25923
[35] = test system: Staphylococcus aureus CCARM 3114
[36] = test system: Staphylococcus aureus CCARM 3709
[37] = test system: Bacillus cereus ATCC 11778
[38] = test system: Salmonella enterica subsp. enterica serovar Enteritidis ATCC 13076
[39] = test system: Serratia marcescens ATCC 21202
[40] = test system: Streptococcus pyogenes ATCC 19615
[41] = test system: Listeria monocytogenes ATCC 19112
[42] = test system: Pseudomonas aeruginosa ATCC 15442
[43] = test system: Bacillus subtilis ATCC 6633
[44] = test system: Klebsiella pneumoniae H507
[45] = test system: Listeria monocytogenes ATCC 19115
[46] = test system: Salmonella enterica subsp. enterica serovar Enteritidis CVCC 3377
[47] = test system: Streptococcus suis CVCC 606

Measured: MIC

CC(C)C[C@H](NC(=O)[C@H](CO)NC(=O)[C@H](CO)NC(=O)[C@H](CO)NC(=O)[C@H](CCCN=C(N)N)NC(=O)[C@@H](NC(=O)[C@H](CCCN=C(N)N)NC(=O)[C@H](Cc1c[nH]c2ccccc12)NC(=O)[C@H](CS)NC(=O)[C@H](CC(N)=O)NC(=O)[C@H](CCCN=C(N)N)NC(=O)[C@H](Cc1ccccc1)NC(=O)[C@H](C)NC(=O)[C@H](CCCCN)NC(=O)[C@H](Cc1c[nH]c2ccccc12)NC(=O)[C@H](CCCN=C(N)N)NC(=O)[C@H](Cc1c[nH]c2ccccc12)NC(=O)[C@H](C)N)C(C)C)C(=O)O [AWRWKAFRNCWRVRSSSL]
> 55.4 µM: [7] | [13]
13.9 µM: [1] | [14] | [17] | [18] | [21]
27.7 µM: [2] | [5] | [6] | [12] | [16] | [20] | [24]
55.4 µM: [8] | [19]
≥ 55.4 µM: [3] | [4] | [9] | [10] | [11] | [15] | [22] | [23]

CC[C@H](C)[C@H](NC(=O)CN)C(=O)N[C@@H](Cc1cnc[nH]1)C(=O)N[C@@H](Cc1cnc[nH]1)C(=O)N[C@H](C(=O)N[C@@H](CC(C)C)C(=O)N[C@@H](CCCCN)C(=O)N[C@@H](Cc1ccc(O)cc1)C(=O)NCC(=O)N[C@@H](CCCCN)C(=O)N1CCC[C@H]1C(=O)N[C@@H](CO)C(=O)O)[C@@H](C)CC [GIHHILKYGKPS]
> 32 µM: [25] | [13] | [34]
≥ 32 µM: [26] | [27] | [28] | [29] | [30] | [31] | [32] | [33] | [35] | [36]

CC[C@H](C)[C@H](N)C(=O)N[C@H](C(=O)N1CCC[C@H]1C(=O)N[C@@H](CC(C)C)C(=O)N1CCC[C@H]1C(=O)N[C@@H](CC(C)C)C(=O)NCC(=O)N[C@@H](Cc1ccc(O)cc1)C(=O)N[C@@H](Cc1ccccc1)C(=O)N[C@@H](C)C(=O)N[C@@H](CCCCN)C(=O)N[C@@H](CCCCN)C(=O)N[C@@H](CCCCN)C(=O)N[C@@H](CCCCN)C(=O)N[C@@H](CCCCN)C(=O)N[C@@H](CCCCN)C(=O)N[C@@H](CC(=O)O)C(=O)N1CCC[C@H]1C(=O)N[C@H](C(=O)N1CCC[C@H]1C(=O)N[C@@H](CC(C)C)C(=O)N[C@@H](CC(=O)O)C(=O)N[C@@H](CCC(N)=O)C(=O)O)C(C)C)[C@@H](C)CC [IIPLPLGYFAKKKKKKDPVPLDQ]
≥ 37.9 µM: [37] | [38] | [39] | [40]
> 37.9 µM: [25] | [8] | [13] | [19]

CC[C@H](C)[C@H](NC(=O)[C@H](CO)NC(=O)[C@@H](N)CC(C)C)C(=O)N[C@@H](CCCN=C(N)N)C(=O)N[C@@H](CCCN=C(N)N)C(=O)N[C@@H](CC(C)C)C(=O)N[C@@H](CC(C)C)C(=O)N[C@@H](C)C(=O)N[C@@H](C)C(=O)NCC(=O)N[C@H](C(=O)N[C@@H](CC(C)C)C(=O)N[C@@H](CCCCN)C(=O)N[C@@H](CCC(N)=O)C(=O)N[C@H](C(=O)N[C@@H](CCCCN)C(=O)NCC(=O)N[C@H](C(=O)NCC(=O)N[C@@H](C)C(=O)O)C(C)C)[C@@H](C)O)C(C)C [LSIRRLLAAGVLKQTKGVGA]
31.2 µM: [41]
13 µM: [42]

CC[C@H](C)[C@H](NC(=O)[C@H](Cc1ccccc1)NC(=O)[C@H](CC(=O)O)NC(=O)[C@H](CCCCN)NC(=O)[C@H](CCCCN)NC(=O)[C@H](CCC(=O)O)NC(=O)[C@H](Cc1c[nH]c2ccccc12)NC(=O)[C@@H](NC(=O)[C@@H](NC(=O)[C@H](CCCCN)NC(=O)[C@@H](NC(=O)[C@H](CCCCN)NC(=O)[C@H](CCCN=C(N)N)NC(=O)[C@H](CCCN=C(N)N)NC(=O)[C@H](CCSC)NC(=O)[C@@H](NC(=O)[C@H](CCCN=C(N)N)NC(=O)[C@H](CCSC)NC(=O)[C@@H](N)CCSC)C(C)C)[C@@H](C)O)C(C)C)[C@@H](C)CC)C(=O)NCC(=O)N[C@@H](CC(C)C)C(=O)N[C@@H](Cc1ccc(O)cc1)C(=O)N[C@@H](CO)C(=O)N[C@H](C(=O)N[C@@H](CC(=O)O)C(=O)O)[C@@H](C)CC [MMRVMRRKTKVIWEKKDFIGLYSID]
2 µM: [46]
7.95 µM: [43] | [44]
0.986 µM: [25] | [34] | [47]
3.97 µM: [45] | [13]
